Source: patent US20130059805A1, “COMPOSITION COMPRISING AN AMORPHOUS NON-CRYSTALLINE GLASS FORM OF AZITHROMYCIN” (North-West University, priority 2009, published 2013)
Values after ≈ are worked out from the molar mass of the structure shown. Where two headings read alike, the source gives them in different places.

What was measured:
[1] = background statement; cited from earlier work
[2] = Solubility in four media (excess solid, 37 degrees Celsius, 24 h, HPLC assay); format: physicochemical; details: for solubility at 24 h: 37 °C, thermodynamic from solid
Procedure: In further analysis of the amorphous non-crystalline glass form (Form-II) of azithromycin, each of five replicate test tubes were filled with an excess of amorphous non-crystalline glass form (Form-II) of azithromycin and 10 ml of solubility medium. The process was performed with each of the following mediums: 0.1 N hydrochloric acid (pH 1), acetate buffer (pH 4.5), phosphate buffer (pH 6.8) and distilled water. This method was also used for testing the prior art azithromycin dihydrate.
The test tubes were then fixed to a rotating axis (54 rpm) and submerged in a water bath at 37 degrees Celsius±2 degrees Celsius for twenty-four hours. The contents of the test tubes were filtered through a 0.45 μm filter and the respective filtrates were subsequently diluted.
The concentrations of the filtrates were determined by HPLC (high performance liquid chromatography) assay. The HPLC assay was performed utilising a mobile phase (600:400) consisting of 8.7 g/L potassium dihydrogen phosphate buffer (pH 4.5) and acetonitrile. A Luna C18 250 mm×4.6 mm column was used with a flow rate of 0.5 mL/min and a wavelength of 210 nm. Validation of this method provided a linear regression r^2 of 0.9999.

[3] = Structural stability study at 40° C. and 75% relative humidity (XRPD, DSC, thermal microscopy); format: physicochemical; details: 4 week testing period
Description: FIG. 5: is a characteristic XRPD (x-ray powder diffraction pattern) of amorphous non-crystalline glass form (Form-II) of azithromycin taken over a period of time wherein 0 is at time of preparation, 1 is week 1, 2 is week 2, 3 is week 3 and 4 is week 4 (Vertical axis: intensity (Lin (counts)); Horizontal axis: 2 Theta (degrees));
FIG. 12: is a DSC (differential scanning calorimetry) trace of amorphous non-crystalline glass form (Form-II) of azithromycin, taken over a period of time, according to one embodiment of the invention wherein 0 is at time of preparation, 1 is week 1, 2 is week 2, 3 is week 3 and 4 is week 4 (Vertical axis: Heat flow (mW); Horizontal axis: temperature (degrees Celsius));
FIG. 13: is a thermal microscopy image (at 25 degrees Celsius) of amorphous non-crystalline glass form (Form-II) of azithromycin taken in the fourth week after preparation according to one embodiment of the invention; and […]

[4] = oral; cited from earlier work
[5] = 0.1 N HCl; cited from earlier work

CC[C@H]1OC(=O)[C@H](C)[C@@H](O[C@H]2C[C@@](C)(OC)[C@@H](O)[C@H](C)O2)[C@H](C)[C@@H](O[C@@H]2O[C@H](C)C[C@H](N(C)C)[C@H]2O)[C@](C)(O)C[C@@H](C)CN(C)[C@H](C)[C@@H](O)[C@]1(C)O [azithromycin raw material (dihydrate), azithromycin dihydrate]
water solubility (in words) [1]: poorly soluble in water | solubility at 24 h ([2]; 0.1 N hydrochloric acid, simulated gastric fluid, 0.1 N HCl (pH 1), 37 degrees Celsius, read-out: solubility in 0.1 N HCl): 40.81 ± 0.368 mg/mL | solubility at 24 h ([2]; aqueous buffer, acetate buffer pH 4.5, 37 degrees Celsius, read-out: solubility in acetate buffer (pH 4.5)): 17.97 ± 0.113 mg/mL | solubility at 24 h ([2]; aqueous buffer, phosphate buffer pH 6.8, 37 degrees Celsius, read-out: solubility in phosphate buffer (pH 6.8)): 8.442 ± 0.069 mg/mL | solubility at 24 h ([2]; distilled water, 37 degrees Celsius, read-out: solubility in distilled water): 0.148 ± 0.028 mg/mL

CC[C@H]1OC(=O)[C@H](C)[C@@H](O[C@H]2C[C@@](C)(OC)[C@@H](O)[C@H](C)O2)[C@H](C)[C@@H](O[C@@H]2O[C@H](C)C[C@H](N(C)C)[C@H]2O)[C@](C)(O)C[C@@H](C)CN(C)[C@H](C)[C@@H](O)[C@]1(C)O
structural stability (solid form) [3]: structurally stable | solubility in 0.1 N HCl ([2]; 0.1 N HCl (pH 1), 37 degrees Celsius): 45.703 ± 0.917 mg/mL (≈ 61 mM) | solubility in acetate buffer (pH 4.5) ([2]; acetate buffer pH 4.5, 37 degrees Celsius): 18.045±0.485 mg/mL | solubility in distilled water ([2]; distilled water, 37 degrees Celsius): 1.357 ± 0.233 mg/mL (≈ 1.81 mM) | solubility in phosphate buffer (pH 6.8) ([2]; phosphate buffer pH 6.8, 37 degrees Celsius): 10.968±0.182 mg/mL

CC[C@H]1OC(=O)[C@H](C)[C@@H](O[C@H]2C[C@@](C)(OC)[C@@H](O)[C@H](C)O2)[C@H](C)[C@@H](O[C@@H]2O[C@H](C)C[C@H](N(C)C)[C@H]2O)[C@](C)(O)C[C@@H](C)CN(C)[C@H](C)[C@@H](O)[C@]1(C)O [azithromycin, (2R,3S,4R,5R,8R,10R,11R,12S,13S,14R)-2-ethyl-3,4,10-trihydroxy-3,5,6,8,10,12,14-heptamethyl-15-oxo-11-{[3,4,6-trideoxy-3-(dimethylamino)-β-D-xylo-hexopyranosyl]oxy}-1-oxa-6-azacyclopentadec-13-yl 2,6-dideoxy-3-C-methyl-3-O-methyl-α-L-ribo-hexopyranoside]
bioavailability (share of an orally administered dose reaching systemic circulation) [4]: 38% | acid stability [5]: acid-stable
